Measurements: paper PMC6017431, “Role of Cationic Side Chains in the Antimicrobial Activity of C18G” (Molecules : A Journal of Synthetic Chemistry and Natural …, 2018)
Like-named read-outs stand apart in the source and are kept apart here. Non-standard residues stand in square brackets, D forms with d. Residues, ends and D or L forms follow the SMILES beside them. No end group written: not given here. Dap = NC[C@H](N)C(=O)O

Legend:
S. aureus ATCC: 27660 = type: cell-based, Staphylococcus aureus
Protocol: (§1) Each bacterial strain was streaked onto LB–Miller agar (BD-Difco, Franklin Lakes, NJ, USA) plates from a frozen stock collection (E. coli D31 [63] S. aureus ATCC: 27660, B. subtilis ATCC: 6051, P. aeruginosa PAO1 [17], and A. baumannii ATCC: 19606). After incubation to allow colony growth, plates stored in a refrigerator at 4 °C. Overnight cultures were inoculated with a single colony of each bacterial strain into fresh LB or Mueller Hinton broth (MH, BD-Difco) in sterile glass test tubes. Inoculated samples were placed in a 37 °C shaking incubator (250 rpm) for ~18 h. After the overnight incubation, a 1:200 dilution of the culture was made in fresh LB or MH for use in subsequent experiments.
(§2) Bacterial growth inhibition was investigated using the standard minimal inhibitory concentration (MIC) assay. Cultures of bacteria were grown as described above, subsequently diluted to ~10^5 cfu/mL in MH media. Subsequently, 90 μL of this diluted culture was added to wells of a sterile 96-well plate containing serially diluted aliquots of the peptides for a final volume in the well of 100 μL. The plate was covered and incubated at 37 °C for 18 h. After incubation the OD600 was measured with a Spectramax M5 multimode plate reader. Next, the minimal bactericidal concentration (MBC) was determined by taking 1 μL of culture from each well on the plate corresponding to peptide concentrations at and above the MIC and plating on a fresh LB-agar plate. The plate incubated overnight at 37 °C, and MBC was determined from the presence or absence of growth on each spot.

B. subtilis ATCC: 6051 = type: cell-based, Bacillus subtilis
Protocol: as §1, §2

E. coli outer membrane = E. coli outer membrane permeabilization (β-lactamase / nitrocefin); type: cell-based; conditions: E. coli D31 in PBS, peptide up to 15 µM, 30 min exposure, absorbance 486 nm, at least 3 replicates
Protocol: Permeabilization of the E. coli outer membrane is monitored using the periplasmic enzyme β-lactamase and the chromogenic substrate nitrocefin. […] The full time course of the permeabilization assay is shown in the supplementary files (Figure S1).
(§3) Figure 4 E. coli membrane permeabilization. Chromogenic substrate breakdown after 30 min of exposure to peptides. (A) Outer membrane permeabilization assayed by nitrocefin breakdown. (B) Inner membrane permeabilization assayed by ONPG breakdown. In both panels colors represent C18G (green), C18G-Arg (red), C18G-His (gray), C18G-Orn (orange), C18G-Dap (blue).
Permeabilization of the E. coli outer membrane was performed as described previously. Briefly, a single colony of E. coli D31 was inoculated in LB Broth (Difco) containing […] ampicillin and allowed to grow at 37 °C with shaking overnight. The culture was diluted 1:200 in LB-Amp and incubated at 37 °C until the OD600 was ~0.2. The culture was subsequently centrifuged at 2500 rpm for 15 min. The pellet was resuspended in an equal volume of PBS and added to a 96-well plate containing serially diluted peptides or polymyxin B (positive control). Immediately before reading, nitrocefin was added to the wells (final concentration 0.25 mg/mL) and mixed by pipetting. The sample absorbance was measured at 486 nm for 90 min. All assays were performed at least in triplicate.

E. coli inner membrane = E. coli inner membrane permeabilization (β-galactosidase / ONPG); type: cell-based; conditions: peptide up to 15 µM, 30 min time point, absorbance 420 nm, at least 3 replicates
Protocol: as §3
Permeabilization of the E. coli inner membrane is monitored with the cytoplasmic enzyme β-galactosidase and the chromogenic substrate ortho-nitrophenyl-β-galactoside (ONPG). This assay in conceptually similar to the outer membrane assay described above, but is focused only on the permeability of the inner membrane. The results are shown in Figure 4B for the 30 min time point of the assay, and the full time course is shown in the supplementary figures (Figure S2).
Inner membrane permeabilization was performed as described previously. The procedure follows that of the outer membrane permeabilization assay, described above, with several modifications. Bacteria were grown overnight in LB media lacking Amp, and dilutions were made in LB supplemented with IPTG. Assay plates were prepared the same, except that cells were not centrifuged before the assay, and were added to the plate directly in the culture medium. Positive control for the inner membrane assay was the cationic detergent CTAB. The substrate was ONPG dissolved in Z-buffer added to a final concentration 0.6 mg/mL in the wells. The sample absorbance was measured at 420 nm for 90 min. All assays were performed at least in triplicate

S. aureus membrane = S. aureus membrane permeabilization (propidium iodide, flow cytometry); type: cell-based; conditions: 30 min, relative to CTAB positive control
Protocol: The membrane architecture varies greatly between Gram-positive and Gram-negative bacteria. The ability of the peptides to permeabilize a Gram-positive bacterial membrane was also investigated; however, in this case, the use of a bacterial enzyme and chromogenic substrate was not possible. Instead, membrane permeability was assessed using the DNA binding fluorophore propidium iodide (PI). The PI molecule is generally impermeable across the cell membrane under normal conditions, but upon permeabilization, PI can readily cross the membrane and bind to DNA, resulting in a dramatic increase in fluorescence emission intensity.
Figure 5 Membrane permeabilization. (A) Permeabilization of S. aureus membranes by peptides. Cultures of S. aureus were incubated with varying concentrations of peptide and 3.75 µg/mL propidium iodide (PI). PI fluorescence was measured via flow cytometry after 30 min of exposure to peptides. Percent leakage was determined based on the positive control CTAB (data not shown). (B) Peptide induced hemolysis. Defibrinated sheep red blood cells were incubated for 1 h with varying concentrations of peptide or control at 37 °C in sterile PBS. After pelleting the remaining cells, the absorbance of the supernatant was measured at 415 nm to detect released hemoglobin. Percent leakage was determined based on the positive control CTAB (Figure S3). All data is the average of at least 3 replicates, where error bars represent the standard deviation.
Flow cytometry was used to identify cell permeability by incorporation of propidium iodide (PI) into S. aureus under various concentrations of CTAB detergent, C18G, C18G-Arg, C18G-His, C18G-Orn, C18G-Dap peptides using a BD FACSCelesta flow cytometer. Approximately 10,000 cells per sample in 100 µL of PBS, permeabilization reagent, and PI 5.6 μM solution, were incubated for 30 min or 45 min at 23 °C counted in duplicate, and fluorescent signal was evaluated Ex 488 nm laser, Em 575 filter. Percentage of cells found to be permeable for all samples was established by gating around cells on histogram illustrating PI signal with known complete permeabilization CTAB 102 µM.

[1] = Trp fluorescence binding to lipid vesicles; conditions: 2 µM peptide in PBS pH 7.0 titrated with SUVs up to 300 µM lipid, excitation 280 nm, 2-5 replicates
Description: Based on the proposed mechanism of membrane disruption, the ability of the C18G peptides to interact with lipid vesicles was investigated. All of the sequences contain a Trp residue which can be used as a reporter of the local environment. As the peptide moves from the aqueous milieu to the bilayer surface, the Trp experiences a significant change in the polarity of the local environment. This change in environmental polarity results in a shift of the Trp emission spectrum from more red-shifted (aqueous) to more blue-shifted (bilayer bound). […] The shift in the emission spectrum can be quantified by changes in […] (λmax) or by a shift in the spectral barycenter.
Figure 2 Trp fluorescence emission to measure peptide binding to vesicles. […] Trp emission barycenter was calculated after each addition of vesicles and plotted as a function of total lipid concentration. […]
Measurements were performed on a JY-Horiba fluoromax4 instrument with emission and excitation slits set to 2.5 nm. For lipid binding/titration assays, samples were excited at 280 nm with emission measured over the range of 300–400 nm. […] The barycenter of the spectrum is an intensity-weighted average over the wavelengths measured, and Δbarycenter is the difference between the barycenter of the sample lacking lipid, and that of a given sample [32, 65]. […]

[2] = MH media, ~10^5 cfu/mL, 37 °C, 18 h, OD600

Compound | S. aureus MBC (S. aureus ATCC: 27660; ATCC: 27660, 18 h) | S. aureus MIC (S. aureus ATCC: 27660; ATCC: 27660, 18 h) | Fold increase in MIC relative to the parent sequence (S. aureus ATCC: 27660; against S. aureus) | B. subtilis MBC (B. subtilis ATCC: 6051; ATCC: 6051, 18 h) | B. subtilis MIC (B. subtilis ATCC: 6051; ATCC: 6051, 18 h) | Outer membrane permeabilization (nitrocefin breakdown) (E. coli outer membrane) | Inner membrane permeabilization (ONPG breakdown) (E. coli inner membrane) | Percent leakage (PI) of S. aureus membrane (S. aureus membrane; through 1.88 µM peptide) | Percent leakage (PI) of S. aureus membrane (S. aureus membrane; 7.5 µM peptide) | Percent leakage (PI) of S. aureus membrane (S. aureus membrane; 15 µM peptide) | Binding to 3:1 PC/PG lipid vesicles (shift of Trp emission barycenter) [1] | S. aureus MIC (S. aureus ATCC: 27660; [2]) | B. subtilis MBC (B. subtilis ATCC: 6051; 1 µL from wells at and above MIC plated on LB-agar, overnight 37 °C) | B. subtilis MIC (B. subtilis ATCC: 6051; [2]) | Percent leakage (PI) of S. aureus membrane (S. aureus membrane; down through 3.75 µM peptide) | Binding to 100% PC lipid vesicles (shift of Trp emission barycenter) [1]
CC(C)C[C@H](NC(=O)[C@H](C)N)C(=O)N[C@@H](Cc1c[nH]c2ccccc12)C(=O)N[C@@H](CN)C(=O)N[C@@H](CN)C(=O)N[C@@H](CC(C)C)C(=O)N[C@@H](CC(C)C)C(=O)N[C@@H](CN)C(=O)N[C@@H](CN)C(=O)N[C@@H](CC(C)C)C(=O)N[C@@H](CC(C)C)C(=O)N[C@@H](CN)C(=O)N[C@@H](CO)C(=O)N[C@@H](C)C(=O)N[C@@H](CN)C(=O)N[C@@H](CN)C(=O)N[C@@H](CC(C)C)C(=O)NCC(N)=O [C18G-Dap] (H-ALW[Dap][Dap]LL[Dap][Dap]LL[Dap]SA[Dap][Dap]LG-NH2) | 7.5 µM | 7.5 µM | ≤ 4 fold | 1.875 µM | 1.875 µM | permeabilization to a lesser extent | little to no permeabilization | – | – | – | – | – | – | – | – | –
CC(C)C[C@H](NC(=O)[C@H](C)N)C(=O)N[C@@H](Cc1c[nH]c2ccccc12)C(=O)N[C@@H](CCCN)C(=O)N[C@@H](CCCN)C(=O)N[C@@H](CC(C)C)C(=O)N[C@@H](CC(C)C)C(=O)N[C@@H](CCCN)C(=O)N[C@@H](CCCN)C(=O)N[C@@H](CC(C)C)C(=O)N[C@@H](CC(C)C)C(=O)N[C@@H](CCCN)C(=O)N[C@@H](CO)C(=O)N[C@@H](C)C(=O)N[C@@H](CCCN)C(=O)N[C@@H](CCCN)C(=O)N[C@@H](CC(C)C)C(=O)NCC(N)=O [C18G-Orn] (HELM PEPTIDE1{A.L.W.[Orn].[Orn].L.L.[Orn].[Orn].L.L.[Orn].S.A.[Orn].[Orn].L.G.[am]}$$$$V2.0) | 1.875 µM | 1.875 µM | – | 7.5 µM | 3.75 µM | near maximal permeabilization observed above 3.75 µM | very little observed leakage | > 50% | – | – | – | – | – | – | – | –
ALWHHLLHHLLHSAHHLG-NH2 [C18G-His] | 15 µM | 15 µM | – | >15 µM | 1.875 µM | almost no permeabilization of the outer membrane except at 15 µM | little to no permeabilization | – | > 50% | > 50% | bound anionic bilayers with higher affinity than zwitterionic bilayers | – | – | – | – | –
ALWKKLLKKLLKSAKKLG-NH2 [C18G] | 3.75 µM | – | – | – | – | near maximal permeabilization observed above 3.75 µM | highest degree of permeabilization | – | – | – | – | 1.875 µM | 1.875 µM | 1.875 µM | – | –
ALWRRLLRRLLRSARRLG-NH2 [C18G-Arg] | 3.75 µM | 3.75 µM | – | 1.875 µM | 1.875 µM | near maximal permeabilization observed above 3.75 µM | induced less leakage | – | – | – | – | – | – | – | ~ 90% | significant increase in binding to zwitterionic PC membranes compared to C18G
